Where two headings read alike, the source gives them in different places.

The subject of one data set is JAK3. The experiment in a line: JAK3 activation in RBL-2H3 mast cells after IgE receptor crosslinking. To be noted: 30 μM.
Data set [1] is described as follows: Pharmacokinetic studies in mice. To be noted: for Cmax: 12.5 mg/kg bolus, read-out: estimated maximum plasma concentration (Cmax). It is filed as in vivo. The procedure:
FIGS. 13A and 13B are graphs showing pharmacokinetic features of the JAK3 inhibitor WHI-P131 in mice. Plasma concentration-time profiles of WHI-P131 in mice following intravenous [13A] or intraperitoneal [13B] administration (12.5 mg/kg; 5 mice per group). The pharmacokinetic parameters, including the central volume of distribution (Vc), estimated maximum plasma concentration (Cmax), elimination half-life (t½β), systemic exposure level/area under plasma concentration-time curve (AUC), and bioavailability (F), are shown in the insets.
Pharmacokinetic Studies: In pharmacokinetic studies, mice were injected either intravenously (i.v.) via the tail vein or intraperitoneally (i.p.) with a bolus dose of 300 μg/mouse (12.5 mg/kg =34 μmols/kg) of WHI-P131. Blood samples were obtained from the ocular venous plexus by retroorbital venupuncture prior to and at 3 minutes, 5 minutes, 10 minutes, 15 minutes, 30 minutes, 45 minutes and 1 hour, 2 hours, 4 hours and 8 hours a administration of WHI-P131. All collected blood samples were heparinized and centrifuged at 7,000×g for 10 minutes in a microcentrifuge to obtain plasma. The plasma samples were stored at −20° C. until analysis. Aliquots of plasma were used for extraction and HPLC analysis. Pharmacokinetic modeling and pharmacokinetic parameter calculations were carried out using the pharmacokinetics software, WinNonline Program, Version 1.1. (Scientific Consulting Inc., Cary, N.C.). Concentration data were weighted by 1/concentration. An appropriate pharmacokinetic model was chosen on the basis of lowest weighted squared residuals, lowest Schwartz criterion (SC), lowest Akaike's Information Criterion (AIC) value, lowest standard errors of the fitted parameters, and dispersion of the residuals. The elimination half-life was estimated by linear regression analysis of the terminal phase of the plasma concentration profile. The area under the concentration time curve (AUC) was calculated by the trapezoidal rule between first (0 h) and last sampling time plus C/k, where C is the concentration of last sampling and k is the elimination rate constant. Systemic clearance (CL) was determined by dividing the dose by the AUC. The apparent volume of distribution at steady-state was calculated using the following equation, Vss=Dose·AUMC/(AUC)^2 Bioavailability (F) was estimated using the equation F(%)=AUCip×Doseiv/AUCiv×Doseip.
In brief, the HPLC system consisted of a Hewlett Packard (HP) series 1100 equipped with an automated electronic degasser, a quaternary pump, an autosampler, an automatic thermostatic column compartment, diode array detector and a computer with a Chemstation software program for data analysis. A 250×4 mm Lichrospher 100, RP-18 (5 μm) analytical column and a 4×4 mm Lichrospher 100, RP-18 (5 μm) guard column were obtained from Hewlett Packard Inc. (San Fernando, Calif.). Acetonitrile/water containing 0.1% of trifluoroacetic acid (TFA) and 0.1% triethylamine (TEA) (28:72, v/v) was used as the mobile phase. The wavelength of detection was set at 340 nm. Peak width, response time and slit were set at >0.03 minutes, 0.5 seconds and 8 nm, respectively. […] For extraction, 7 ml chloroform was then added to the plasma sample, and the mixture was vortexed thoroughly for 3 minutes. Following centrifugation (300×g, 5 minutes), the aqueous layer was frozen using acetone/dry ice and the organic phase was transferred into a clean test tube. The chloroform extracts were dried under a slow steady stream of nitrogen. The residue was reconstituted in 100 μL of methanol: water (9:1) and 50 μL aliquot of this solution was used for HPLC analysis.

A further data set has as its system RBL-2H3 mast cells. The experiment in a line: IgE/antigen-induced degranulation and mediator release. The data set is classed as cell-based, rat. The following applies: 1 h preincubation, DNP-BSA challenge; at ≧30 μM. The text has this: Vehicle treated control RBL-2H3 cells released 45.1±3.1% of their hexosaminidase contents after DNP-BSA challenge. […] Vehicle treated control cells released 11.3±1.3 pg LTC4, and 160±33.0 pg TNFα/10^6 mast cells. The results on LTC4 and TNFα release are expressed as percent of maximum control release from vehicle treated control mast cells. The data points represent the mean±SEM values obtained from 3-6 independent experiments. […] *P<0.05 and **P<0.0001 compared to control as determined by Student's t test.
Supernatants were removed and saved.

The subject of the next data set is BALB/c mice. The experiment in a line: Passive cutaneous anaphylaxis model. The data set is classed as in vivo. The following applies: 25 mg/kg i.p. dose level. The procedure: FIG. 14A is a graph showing the effects of WHI-P131 on anaphylaxis-associated vascular hyperpermeability, examined by evaluating the cutaneous extravasation of albumin-bound Evans blue dye in mice (n=12). The plasma exudation indices were determined for vehicle treated as well as WHI-P131 treated mice, as described in the Examples. To study the effect of WHI-P131 on anaphylaxis, IgE sensitized mice were injected with two consecutive doses of 10 or 25 mg/kg WHI-P131 at 90 minutes before and 30 minutes before the antigen challenge, respectively. Mice were then challenged with 100 μg DNP-BSA in 2% Evans blue dye and the plasma exudation indices were determined. […] The data are expressed as plasma exudation index (times increase in optical density over PBS treated ears. The mean OD (at 620 nm) of vehicle treated ears was 0.22±0.04 before and 0.918±0.05 after the IgE/antigen challenge. *p<0.05 compared to vehicle treated controls.
After 20 hours, mice were treated with WHI-P131 (10 or 25 mg/kg i.p.) twice at 1 hour intervals prior to the antigen challenge. […] For quantitation of Evans blue dye extravasation as a measure of anaphylaxis-associated vascular hyperpermeability, 8 mm skin specimens were removed from the ears of mice, minced in 2 ml formamide and incubated at 80° C. for 2 hours in water bath to extract the dye. The absorbance was read at 620 nm. […]

A further data set relates to human mast cells. The following applies: IgE-sensitized, anti-IgE challenge, 30 minutes exposure.

Protocol for JAK3: Cells were lysed at the indicated time points, and SYK immune complexes were subjected to kinase assays in the presence of cold ATP followed by APT immunoblotting (upper panels in 8C & 8D) as well as to SYK Western blot analysis (lower panels in 8C & 8D).
Immune-Complex Kinase Assays and Western Blot Analyses of Mast Cell Lysates. […] Cells were harvested, lysed (10 mM Tris pH 7.6, 100 mM NaCl, 1% Nonidet P-40, 10% glycerol, 50 mM NaF, 100 mM Na3VO4, 50 mg/ml phenylmethylsulfonyl fluoride, 10 mg/ml aprotonin, 10 mg/ml leupeptin), and the kinases were immunoprecipitated from the lysates, as reported (Uckun et. al., 1995, Science, 267:886-891; Uckun et. al., 1996, Science, 273:1096-1100). […] Immunoprecipitations, and immunoblotting using the ECL chemiluminescence detection system (Amersham Life Sciences) were conducted as described previously (Uckun et. al., 1996, Science, 273:1096-1100).
Protocol for human mast cells: Human Mast Cells: Cells from human fetal livers (16 to 21 weeks of gestational age) were cultured for 5 weeks in the presence of 50 ng/ml rhSCF, 2 ng/ml rhlL-4 (Xia et. al., 1997, J. Immunol., 159:2911-2921). Culture medium was replaced with fresh medium once a week for the first 2 weeks and twice a week thereafter. At the end of the 5 weeks, the fetal liver derived cell cultures contained>70% mast cells, based on tryptase staining (Irani et. al., 1989, J. Histochem. Cytochem, 37:1509-1515).
Fetal liver derived human mast cells were resuspended in tyrode buffer containing calcium and magnesium and challenged with anti-FcεRI antibody 22E7 for 15 minutes. […]
Leukotriene (LT) C4 levels were estimated in cell free supernatants by immunoassay (Malaviya et. al., 1993, J. Biol. Chem., 268:4939-4944). […] Tryptase levels were quantitated in cell free supernatants and pellets of fetal liver derived human mast cells as has been described in detail (Xia et. al., 1997, J. Immunol., 159:2911-2921).
Fetal liver derived human mast cells were cultured in presence of SCF and IL-4 for 5 weeks. […] The FcεRI receptors of fetal liver derived human mast cells were crosslinked with anti-IgE and the resulting mast cell degranulation (i.e., β-tryptase) (Xia et. al., 1997, J. Immunol., 159:2911-2921) and LTC4 release (Malaviya et. al., 1993, J. Biol. Chem., 268:4939-4944) were quantitated.

Take `COc1cc2ncnc(Nc3ccc(O)cc3)c2cc1OC` [WHI-P131, 4-(4′-Hydroxylphenyl)-amino-6,7-dimethoxyquinazoline]: in the data set with JAK3, the “JAK3 activation after IgE receptor crosslinking” value is reported as “abrogated”. In data set [1] (i.p., 12.5 mg/kg), the absorption half-life was determined as 6 min, the estimated bioavailability is reported as 94.4%, the “time to reach maximum plasma concentration” value was 0.17 h and the β-half-life was 1.9 h. In addition, the Cmax in data set [1] (i.p.) was 57.7 µM. This compound returned a β-half-life in data set [1] (i.v., 12.5 mg/kg) of 2.1 h. In data set [1] (i.v.), the Cmax is 85.6 µM. For the same compound, in the data set with RBL-2H3 mast cells, the LTC4 release result is on record as “near to complete inhibition”, the TNFα release result was “near to complete inhibition” and the “β-hexosaminidase release (degranulation)” value was “near to complete inhibition”. Besides, the “inhibition of IgE/antigen induced plasma exudation (Evans blue extravasation)” value in the data set on BALB/c mice was 70%. In the data set with human mast cells, the “release of LTC4” value was “inhibited” and the “release of β-tryptase” value is reported as “inhibited”.
